# Where two headings read alike, the source gives them in different places.
# Columns and labels:
# Assay in all cases: biochemical
# [1] = target: RPS6KA1 (RSK1) (Homo sapiens, UniProt Q15418); conditions: read-out: % inhibition mean (Z'Lyte)
# [2] = target: SGKL (SGK3) (Homo sapiens, UniProt Q96BR1); conditions: read-out: % inhibition mean (Z'Lyte)
# [3] = target: SRMS (Srm) (Homo sapiens, UniProt Q9H3Y6); conditions: read-out: % inhibition mean (Z'Lyte)
# [4] = target: SGK (SGK1) (Homo sapiens, UniProt O00141); conditions: read-out: % inhibition mean (Z'Lyte)
# [5] = target: RET Y791F (Homo sapiens, UniProt P07949, Y791F); conditions: read-out: % inhibition mean (Z'Lyte)
# [6] = target: MAPK12 (p38 gamma) (Homo sapiens, UniProt P53778); conditions: read-out: % inhibition mean (Z'Lyte)
# [7] = target: MAPKAPK5 (PRAK) (Homo sapiens, UniProt Q8IW41); conditions: read-out: % inhibition mean (Z'Lyte)
# [8] = target: AMPK (A2/B1/G3) (Homo sapiens, UniProt P54646); conditions: read-out: % inhibition mean (Z'Lyte)
# [9] = target: INSR (Homo sapiens, UniProt P06213); conditions: read-out: % inhibition mean (Z'Lyte)
# [10] = target: SRC N1 (Homo sapiens, UniProt P12931); conditions: read-out: % inhibition mean (Z'Lyte)
# [11] = target: FGFR2 N549H (Homo sapiens, UniProt P21802, N549H); conditions: read-out: % inhibition mean (Z'Lyte)
# [12] = target: JAK3 (Homo sapiens, UniProt P52333); conditions: read-out: % inhibition mean (Z'Lyte)
# [13] = target: TEK (Tie2) (Homo sapiens, UniProt Q02763); conditions: read-out: % inhibition mean (Z'Lyte)
# [14] = target: PRKG1 (Homo sapiens, UniProt Q13976); conditions: read-out: % inhibition mean (Z'Lyte)
# [15] = target: PDK1 (Homo sapiens, UniProt O15530)
# [16] = target: STK33 (Homo sapiens, UniProt Q9BYT3); conditions: read-out: % inhibition mean (Lanthascreen)
# [17] = target: LTK (TYK1) (Homo sapiens, UniProt P29376); conditions: read-out: % inhibition mean (Z'Lyte)
# [18] = target: DYRK1B (Homo sapiens, UniProt Q9Y463); conditions: read-out: % inhibition mean (Z'Lyte)
# [19] = target: PI4KB (PI4K beta) (Homo sapiens, UniProt Q9UBF8); conditions: read-out: % inhibition mean (Adapta)
# [20] = target: LRRK2 R1441C (Homo sapiens, UniProt Q5S007, R1441C); conditions: read-out: % inhibition mean (Adapta)
# [21] = target: PIK3CB/PIK3R1 (p110 beta/p85 alpha) (Homo sapiens, UniProt P42338); conditions: read-out: % inhibition mean (Adapta)
# [22] = target: PI4K2B (PI4K2 beta) (Homo sapiens, UniProt Q8TCG2); conditions: read-out: % inhibition mean (Adapta)
# [23] = target: PIK3C2B (PI3K-C2 beta) (Homo sapiens, UniProt O00750); conditions: read-out: % inhibition mean (Adapta)
# [24] = target: PIK3C2G (PI3K-C2 gamma) (Homo sapiens, UniProt O75747); conditions: read-out: % inhibition mean (Adapta)
# [25] = target: IRAK1 (Homo sapiens, UniProt P51617); conditions: read-out: % inhibition mean (Adapta)
# [26] = target: PIK3C3 (hVPS34) (Homo sapiens, UniProt Q8NEB9); conditions: read-out: % inhibition mean (Adapta)
# [27] = target: LRRK2 FL (Homo sapiens, UniProt Q5S007); conditions: read-out: % inhibition mean (Adapta)
# [28] = target: CHUK (IKK alpha) (Homo sapiens, UniProt O15111); conditions: read-out: % inhibition mean (Adapta)
# Chain of PDK1 (O15530 whole entry): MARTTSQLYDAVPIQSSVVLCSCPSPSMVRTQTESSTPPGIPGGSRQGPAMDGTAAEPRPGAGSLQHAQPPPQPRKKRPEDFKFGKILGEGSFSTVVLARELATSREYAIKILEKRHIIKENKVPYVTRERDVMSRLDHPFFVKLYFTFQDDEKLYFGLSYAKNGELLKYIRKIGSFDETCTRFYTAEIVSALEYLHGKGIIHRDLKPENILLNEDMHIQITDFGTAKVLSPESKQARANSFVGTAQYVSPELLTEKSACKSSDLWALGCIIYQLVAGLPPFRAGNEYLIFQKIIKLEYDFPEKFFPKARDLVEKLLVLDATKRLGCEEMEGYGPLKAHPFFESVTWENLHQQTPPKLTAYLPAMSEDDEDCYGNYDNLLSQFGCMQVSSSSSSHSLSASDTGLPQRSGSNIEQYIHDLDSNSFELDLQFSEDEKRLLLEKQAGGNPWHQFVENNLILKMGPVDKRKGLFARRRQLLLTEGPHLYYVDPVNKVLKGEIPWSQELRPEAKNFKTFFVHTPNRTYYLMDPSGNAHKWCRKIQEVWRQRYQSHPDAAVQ
# Chain of LRRK2 FL (Q5S007 whole entry): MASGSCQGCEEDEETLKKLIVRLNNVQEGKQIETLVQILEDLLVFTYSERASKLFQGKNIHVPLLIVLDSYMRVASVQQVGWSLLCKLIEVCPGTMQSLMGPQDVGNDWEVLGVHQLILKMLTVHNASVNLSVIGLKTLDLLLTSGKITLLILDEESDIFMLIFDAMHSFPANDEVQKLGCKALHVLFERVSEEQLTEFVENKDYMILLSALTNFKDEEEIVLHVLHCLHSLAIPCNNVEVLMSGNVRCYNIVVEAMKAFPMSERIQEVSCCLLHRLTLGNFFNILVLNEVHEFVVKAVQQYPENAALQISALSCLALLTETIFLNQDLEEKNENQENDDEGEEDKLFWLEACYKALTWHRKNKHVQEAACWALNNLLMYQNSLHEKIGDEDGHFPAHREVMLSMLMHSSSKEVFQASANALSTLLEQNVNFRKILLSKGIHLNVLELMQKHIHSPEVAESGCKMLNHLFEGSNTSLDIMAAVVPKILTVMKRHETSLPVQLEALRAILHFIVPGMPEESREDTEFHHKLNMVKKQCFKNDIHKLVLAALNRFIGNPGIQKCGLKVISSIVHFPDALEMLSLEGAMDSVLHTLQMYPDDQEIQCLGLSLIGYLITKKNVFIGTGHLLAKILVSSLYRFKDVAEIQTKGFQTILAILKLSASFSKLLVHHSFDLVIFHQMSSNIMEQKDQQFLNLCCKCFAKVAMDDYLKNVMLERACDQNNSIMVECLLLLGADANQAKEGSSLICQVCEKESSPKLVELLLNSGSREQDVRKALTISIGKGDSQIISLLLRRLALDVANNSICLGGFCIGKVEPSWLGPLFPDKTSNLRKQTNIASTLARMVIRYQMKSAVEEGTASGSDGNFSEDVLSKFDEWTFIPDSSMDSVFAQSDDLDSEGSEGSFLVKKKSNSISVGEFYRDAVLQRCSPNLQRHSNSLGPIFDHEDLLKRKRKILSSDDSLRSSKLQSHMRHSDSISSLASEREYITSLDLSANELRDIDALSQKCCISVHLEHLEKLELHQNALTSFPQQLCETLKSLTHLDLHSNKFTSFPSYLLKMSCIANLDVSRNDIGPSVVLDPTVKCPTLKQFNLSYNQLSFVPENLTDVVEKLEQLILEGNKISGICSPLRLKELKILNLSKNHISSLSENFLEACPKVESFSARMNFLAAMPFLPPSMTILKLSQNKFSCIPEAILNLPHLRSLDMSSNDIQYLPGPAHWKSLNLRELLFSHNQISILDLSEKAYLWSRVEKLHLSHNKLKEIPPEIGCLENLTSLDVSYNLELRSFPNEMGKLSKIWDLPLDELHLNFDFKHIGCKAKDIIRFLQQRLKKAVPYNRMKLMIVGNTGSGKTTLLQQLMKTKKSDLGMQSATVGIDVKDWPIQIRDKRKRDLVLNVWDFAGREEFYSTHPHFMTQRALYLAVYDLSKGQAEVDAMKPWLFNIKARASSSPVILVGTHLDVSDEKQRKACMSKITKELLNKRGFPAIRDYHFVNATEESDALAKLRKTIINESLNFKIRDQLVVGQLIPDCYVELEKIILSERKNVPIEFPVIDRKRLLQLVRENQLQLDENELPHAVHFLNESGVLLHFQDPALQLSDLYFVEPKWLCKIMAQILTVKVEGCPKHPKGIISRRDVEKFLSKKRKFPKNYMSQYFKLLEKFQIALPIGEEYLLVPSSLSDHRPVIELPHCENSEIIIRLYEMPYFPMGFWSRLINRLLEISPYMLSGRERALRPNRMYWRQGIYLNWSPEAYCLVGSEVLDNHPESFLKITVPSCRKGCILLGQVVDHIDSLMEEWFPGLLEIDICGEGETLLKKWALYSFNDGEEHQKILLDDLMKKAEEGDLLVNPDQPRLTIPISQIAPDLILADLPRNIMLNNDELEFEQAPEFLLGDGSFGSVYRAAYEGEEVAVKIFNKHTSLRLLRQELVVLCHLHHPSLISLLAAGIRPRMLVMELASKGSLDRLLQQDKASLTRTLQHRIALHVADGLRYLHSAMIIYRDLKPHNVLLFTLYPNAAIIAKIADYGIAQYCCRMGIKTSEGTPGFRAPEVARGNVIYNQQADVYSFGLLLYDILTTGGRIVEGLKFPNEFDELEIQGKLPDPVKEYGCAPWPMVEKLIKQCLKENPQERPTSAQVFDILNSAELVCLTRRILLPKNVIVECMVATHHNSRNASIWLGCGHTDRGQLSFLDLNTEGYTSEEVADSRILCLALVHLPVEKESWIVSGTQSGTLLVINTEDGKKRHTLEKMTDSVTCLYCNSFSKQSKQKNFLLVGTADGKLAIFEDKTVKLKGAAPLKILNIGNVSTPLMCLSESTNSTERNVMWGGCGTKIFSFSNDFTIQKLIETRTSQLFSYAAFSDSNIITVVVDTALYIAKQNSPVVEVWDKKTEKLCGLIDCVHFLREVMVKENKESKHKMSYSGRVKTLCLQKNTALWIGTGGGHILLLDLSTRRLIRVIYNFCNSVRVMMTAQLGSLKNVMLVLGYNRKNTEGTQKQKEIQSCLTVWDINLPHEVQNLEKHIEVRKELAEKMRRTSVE
# Chain of SGK (SGK1) (O00141 whole entry): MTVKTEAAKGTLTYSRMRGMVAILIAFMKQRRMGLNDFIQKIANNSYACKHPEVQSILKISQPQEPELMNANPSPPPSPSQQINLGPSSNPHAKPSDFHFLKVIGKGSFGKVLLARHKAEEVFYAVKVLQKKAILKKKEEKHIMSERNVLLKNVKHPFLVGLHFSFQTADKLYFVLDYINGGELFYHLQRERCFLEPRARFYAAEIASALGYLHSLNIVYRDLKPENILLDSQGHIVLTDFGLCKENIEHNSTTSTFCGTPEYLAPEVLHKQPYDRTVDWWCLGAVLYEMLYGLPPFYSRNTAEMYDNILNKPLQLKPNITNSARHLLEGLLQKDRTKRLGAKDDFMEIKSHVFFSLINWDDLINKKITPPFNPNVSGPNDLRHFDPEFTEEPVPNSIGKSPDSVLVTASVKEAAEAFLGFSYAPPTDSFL
# Chain of MAPKAPK5 (PRAK) (Q8IW41 whole entry): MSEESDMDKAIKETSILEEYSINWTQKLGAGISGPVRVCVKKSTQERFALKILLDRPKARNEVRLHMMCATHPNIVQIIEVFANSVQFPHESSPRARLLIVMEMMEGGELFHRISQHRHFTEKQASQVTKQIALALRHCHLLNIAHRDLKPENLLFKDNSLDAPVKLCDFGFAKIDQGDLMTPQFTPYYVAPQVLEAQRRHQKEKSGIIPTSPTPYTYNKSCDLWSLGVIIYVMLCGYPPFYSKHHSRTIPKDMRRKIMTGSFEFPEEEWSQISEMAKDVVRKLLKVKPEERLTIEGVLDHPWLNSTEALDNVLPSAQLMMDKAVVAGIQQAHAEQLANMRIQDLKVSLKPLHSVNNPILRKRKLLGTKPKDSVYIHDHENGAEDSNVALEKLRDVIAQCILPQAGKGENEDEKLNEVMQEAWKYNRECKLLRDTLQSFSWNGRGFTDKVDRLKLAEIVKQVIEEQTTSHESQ
# Chain of PI4K2B (PI4K2 beta) (Q8TCG2 whole entry): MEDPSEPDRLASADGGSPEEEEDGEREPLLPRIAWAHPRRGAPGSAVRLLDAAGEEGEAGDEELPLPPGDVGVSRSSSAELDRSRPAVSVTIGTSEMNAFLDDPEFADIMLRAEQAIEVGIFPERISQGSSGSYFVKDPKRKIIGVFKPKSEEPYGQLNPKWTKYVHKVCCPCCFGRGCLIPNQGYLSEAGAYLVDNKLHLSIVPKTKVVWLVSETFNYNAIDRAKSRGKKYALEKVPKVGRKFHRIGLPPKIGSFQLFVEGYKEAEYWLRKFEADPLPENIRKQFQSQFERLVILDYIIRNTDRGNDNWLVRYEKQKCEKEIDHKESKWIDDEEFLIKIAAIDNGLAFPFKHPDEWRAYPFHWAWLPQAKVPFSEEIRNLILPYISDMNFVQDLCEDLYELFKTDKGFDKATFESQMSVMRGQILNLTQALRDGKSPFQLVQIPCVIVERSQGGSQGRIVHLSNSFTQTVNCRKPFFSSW
# Chain of MAPK12 (p38 gamma) (P53778 whole entry): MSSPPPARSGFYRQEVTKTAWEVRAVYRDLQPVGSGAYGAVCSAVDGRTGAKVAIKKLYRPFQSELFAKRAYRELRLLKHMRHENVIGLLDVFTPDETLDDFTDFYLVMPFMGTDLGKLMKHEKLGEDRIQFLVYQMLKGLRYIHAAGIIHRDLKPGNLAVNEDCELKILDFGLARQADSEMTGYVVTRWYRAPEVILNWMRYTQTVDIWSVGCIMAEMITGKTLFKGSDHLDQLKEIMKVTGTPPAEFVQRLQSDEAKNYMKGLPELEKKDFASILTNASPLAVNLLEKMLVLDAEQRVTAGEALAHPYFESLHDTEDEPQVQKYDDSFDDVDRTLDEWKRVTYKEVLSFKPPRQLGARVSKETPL
# Chain of LRRK2 R1441C (Q5S007 whole entry R1441C): as the sequence (Q5S007 whole entry) above, with R1441C counted along it
compound,measurement,setting,value
"COc1ccc2nc3cc(Cl)ccc3c(Nc3cc(CN4CCCC4)c(O)c(CN4CCCC4)c3)c2n1 [Pyronaridine, 4-[(7-Chloro-2-methoxybenzo[b][1,5]naphthyridin-10-yl)amino]-2,6-bis(1-pyrrolidinylmethyl)phenol phosphate (1:4)]",inhibition at 1 µM,[1],-1%
same,inhibition at 1 µM,[2],0%
same,inhibition at 1 µM,[3],2%
same,inhibition at 1 µM,[4],4%
same,inhibition at 1 µM,[5],5%
same,inhibition at 1 µM,[6],7%
same,inhibition at 1 µM,[7],3%
same,inhibition at 1 µM,[8],2%
same,inhibition at 1 µM,[9],10%
same,inhibition at 1 µM,[10],5%
same,inhibition at 1 µM,[11],2%
same,inhibition at 1 µM,[12],1%
same,inhibition at 1 µM,[13],5%
same,inhibition at 1 µM,[14],-6%
same,inhibition at 1 µM,[15]; read-out: % inhibition mean (Z'Lyte),0%
same,inhibition at 1 µM,"[15]; read-out: % inhibition mean (Z'Lyte), direct format",7%
same,inhibition at 1 µM,[16],11%
same,inhibition at 1 µM,[17],-1%
same,inhibition at 1 µM,[18],1%
same,inhibition at 1 µM,[19],5%
same,inhibition at 1 µM,[20],-7%
same,inhibition at 1 µM,[21],-11%
same,inhibition at 1 µM,[22],2%
same,inhibition at 1 µM,[23],-5%
same,inhibition at 1 µM,[24],3%
same,inhibition at 1 µM,[25],-4%
same,inhibition at 1 µM,[26],-4%
same,inhibition at 1 µM,[27],-4%
same,inhibition at 1 µM,[28],0%
